From patent US9211310B2, “Use of a Chinese medicine composition in preparing medicaments for treating secondary prevention of myocardial infarction” (TASLY PHARMACEUTICAL GROUP CO., LTD, priority 2010, dated 2015)

Tested on: patients after acute myocardial infarction
Assay: Life quality, Seattle Angina Questionnaire (SAQ), same clinical trial
Assay type: in vivo, human
Conditions: PP
Description: 3508 patients who were in accordance with the diagnostic standards of AMI for 28 days to 2 years and differentiated as Qi deficiency and blood stagnation syndrome by TCM were studied. 0.5 g Chinese medicine composition prepared by the method of EXAMPLE 1 (Coded as QSYQ) was administrated half an hour after meal, 3 times per day.
There were 19 questions in the Seattle angina questionnaire (SAQ), including 5 parts: physical limitation (PL), anginal stability (AS), anginal frequency (AF), treatment satisfaction (TS) and disease perception (DP). After being given necessary explanation by doctors, the questions were answered independently by patients.
They included the overall survival time, angina pectoris score, TCM symptom score and life quality score, where angina pectoris score, TCM symptom score and life quality score were evaluated at randomization, in 1st, 3rd, 6th, 9th, 12th month after treatment and 18th month after follow-up.
All evaluation results of SAQ were described during the period of observation, and Wilcoxon rank sum test was used for inter-group comparison.
The evaluation results in the SAQ were depicted in different observations, and inter-group comparison was tested by Wilcoxon Rank-sum test.

CC(=O)Oc1ccccc1C(=O)O [Control group, aspirine]
SAQ Question 1-1 Moderately limited, percent of patients (6 months after treatment): (0.28%)
SAQ Question 1-1 Not limited, number of patients (6 months after treatment): 1368
SAQ Question 1-1 Not limited, percent of patients (6 months after treatment): (94.34%)
SAQ Question 1-1 Other reasons, number of patients (6 months after treatment): 3
SAQ Question 1-1 Other reasons, percent of patients (6 months after treatment): (0.21%)
SAQ Question 1-1 Severely limited, number of patients (6 months after treatment): 0
SAQ Question 1-1 Severely limited, percent of patients (6 months after treatment): (0.00%)
SAQ Question 1-1 Slightly limited, number of patients (6 months after treatment): 53
SAQ Question 1-1 Slightly limited, percent of patients (6 months after treatment): (3.66%)
SAQ Question 1-2 Mildly limited, number of patients (6 months after treatment): 19
SAQ Question 1-2 Mildly limited, percent of patients (6 months after treatment): (1.31%)
SAQ Question 1-2 Moderately limited, number of patients (6 months after treatment): 6
SAQ Question 1-2 Moderately limited, percent of patients (6 months after treatment): (0.41%)
SAQ Question 1-2 Not limited, number of patients (6 months after treatment): 1352
SAQ Question 1-2 Not limited, percent of patients (6 months after treatment): (93.24%)
SAQ Question 1-2 Other reasons, number of patients (6 months after treatment): 6
SAQ Question 1-2 Other reasons, percent of patients (6 months after treatment): (0.41%)
SAQ Question 1-2 Severely limited, number of patients (6 months after treatment): 1
SAQ Question 1-2 Severely limited, percent of patients (6 months after treatment): (0.07%)
SAQ Question 1-2 Slightly limited, number of patients (6 months after treatment): 66
SAQ Question 1-2 Slightly limited, percent of patients (6 months after treatment): (4.55%)
SAQ Question 1-6: Mildly limited, patients (%) (6 months after treatment): (16.24%)
SAQ Question 1-6: Moderately limited, patients (%) (6 months after treatment): (12.07%)
SAQ Question 1-6: Not limited, patients (%) (6 months after treatment): (34.35%)
SAQ Question 1-6: Other reasons, patients (%) (6 months after treatment): (1.11%)
SAQ Question 1-6: Severely limited, patients (%) (6 months after treatment): (3.19%)
SAQ Question 1-6: Slightly limited, patients (%) (6 months after treatment): (33.03%)
SAQ Question 1-7: Mildly limited, patients (%) (6 months after treatment): (21.45%)
SAQ Question 1-7: Moderately limited, patients (%) (6 months after treatment): (12.58%)
SAQ Question 1-7: Not limited, patients (%) (6 months after treatment): (14.47%)
SAQ Question 1-7: Other reasons, patients (%) (6 months after treatment): (3.70%)
SAQ Question 1-7: Severely limited, patients (%) (6 months after treatment): (14.88%)
SAQ Question 1-7: Slightly limited, patients (%) (6 months after treatment): (32.91%)
SAQ Question 1-8: Mildly limited, patients (%) (6 months after treatment): (25.91%)
SAQ Question 1-8: Moderately limited, patients (%) (6 months after treatment): (16.01%)
SAQ Question 1-8: Not limited, patients (%) (6 months after treatment): (10.81%)
SAQ Question 1-8: Other reasons, patients (%) (6 months after treatment): (3.79%)
SAQ Question 1-8: Severely limited, patients (%) (6 months after treatment): (18.96%)
SAQ Question 1-8: Slightly limited, patients (%) (6 months after treatment): (24.51%)
8th question: Mostly satisfied, patients (%) (6 months after treatment, second line of the scale): (1.58%)
8th question: Dissatisfied, patients (%) (9 months after treatment): (0.28%)
8th question: Highly satisfied, patients (%) (9 months after treatment): (23.18%)
8th question: Mostly dissatisfied, patients (%) (9 months after treatment): (1.18%)
8th question: Mostly satisfied, patients (%) (9 months after treatment): (58.78%)
8th question: Partly satisfied, patients (%) (9 months after treatment): (16.59%)
9th question: Few, patients (%) (9 months after treatment): (38.61%)
9th question: Mild, patients (%) (9 months after treatment): (32.78%)
9th question: Moderate, patients (%) (9 months after treatment): (7.01%)
9th question: Severe, patients (%) (9 months after treatment): (0.35%)
9th question: Uneffective, patients (%) (9 months after treatment): (21.25%)
10th question: Dissatisfied, patients (%) (9 months after treatment): (18.81%)
10th question: Highly satisfied, patients (%) (9 months after treatment): (6.18%)
10th question: Mostly dissatisfied, patients (%) (9 months after treatment): (19.99%)
10th question: Mostly satisfied, patients (%) (9 months after treatment): (29.22%)
10th question: Partly satisfied, patients (%) (9 months after treatment): (25.82%)
11th question: Continuously worried, patients (%) (9 months after treatment): (2.43%)
11th question: No worried, patients (%) (9 months after treatment): (6.11%)
11th question: Occasionally worried, patients (%) (9 months after treatment): (42.40%)
11th question: Often worried, patients (%) (9 months after treatment): (11.73%)
11th question: Seldom worried, patients (%) (9 months after treatment): (37.34%)
SAQ 4th question, 1-2 times per week: % of patients (9 months after treatment): (15.99%)
SAQ 4th question, 1-2 times per week: number of patients (9 months after treatment): 230
SAQ 4th question, 1-3 times per week: % of patients (9 months after treatment): (3.41%)
SAQ 4th question, 1-3 times per week: number of patients (9 months after treatment): 49
SAQ 4th question, <1 time per week: % of patients (9 months after treatment): (14.95%)
SAQ 4th question, <1 time per week: number of patients (9 months after treatment): 215
SAQ 4th question, Not used: % of patients (9 months after treatment): (61.54%)
SAQ 4th question, Not used: number of patients (9 months after treatment): 885
SAQ 4th question, ≧3 times per week: % of patients (9 months after treatment): (4.03%)
SAQ 4th question, ≧3 times per week: number of patients (9 months after treatment): 58
SAQ 4th question, ≧4 times per day: % of patients (9 months after treatment): (0.07%)
SAQ 4th question, ≧4 times per day: number of patients (9 months after treatment): 1
SAQ 5th question, 1-2 times per week: % of patients (9 months after treatment): (30.04%)
SAQ 5th question, 1-2 times per week: number of patients (9 months after treatment): 432
SAQ 5th question, 1-3 times per day: % of patients (9 months after treatment): (6.68%)
SAQ 5th question, 1-3 times per day: number of patients (9 months after treatment): 96
SAQ 5th question, <1 time per week: % of patients (9 months after treatment): (28.65%)
